# Assay results: patent publication US9725490B2, “ERAP1-derived peptide and use thereof” (TOKUSHIMA UNIVERSITY, priority 2011, dated 2017)
# Tests used:
# Assay type in all cases: cell-based, human
# KPL3 cells = test: E2-independent cell proliferation, KPL-3C; conditions: 10 μM every 24 hours, at 48 hours
# Protocol: (§1) FIG. 16 is a diagram illustrating the influence of the ERAP1-peptide on proliferation of E2-independent breast cancer cells. […] Each of the cells was treated with 10 μM ERAP1-peptide for 24 hours (MCF-7), for 48 hours (KPL-3C) or for 96 hours (ZR-75-1 and T47D).
# (§2) MCF-7 cells or ZR-75-1 cells were seeded in 2×10^4/well, and KPL-3C cells were seeded in 1×10^4/well on a 48-well plate, and stood in a CO2 incubator for 24 hours. Then, for MCF-7 cells, the culture medium was exchanged with DMEM/F12 culture medium containing 10% FBS (Nichirei Biosciences, Tokyo, Japan), 1% antibiotic/antimycotic solution (Invitrogen), 0.1 mM NEAA48 (invitrogen), 1 mM sodium pyruvate and 10 μg/ml insulin (Sigma, St. Louis, Mo., USA) and not containing phenol red, and the cells were further pre-cultured for 24 hours. On the other hand, for ZR-75-1 cells and KPL-3C cells, the culture media were exchanged with RPMI culture media containing 10% FBS and 1% antibiotic/antimycotic solution and not containing phenol red, and the cells were further pre-cultured for 24 hours. The supernatant was removed, and then 200 μl of the ERAP1-peptide in each concentration or tamoxifen as a positive control was added, respectively and the mixture was reacted for 24 hours. […] Then, 100 μl from each well was moved to a 96-well plate, and the absorbance at 450 nm was measured with a microplate reader.
# ZR75-1 cells = test: E2-independent cell proliferation, ZR-75-1; conditions: 10 μM every 24 hours, at 96 hours
# Protocol: as §1, §2
# [1] = system: ERα binding to Her2, EGFR, IGF1-Rβ, PI3K; AKt and MAPK routes; test: Non-genomic activation route, immunoblotting, BT474
# Protocol: FIG. 10-2 is a diagram illustrating that the ERAP1-peptide regulates E2-induced non-genomic activation route via IGF-1Rβ and Shc. […] BT-474 cells were treated with the ERAP1-peptide and/or E2 for 24 hours. Then, the cytoplasm fraction was immunoprecipitated with anti-ERα antibody.
# FIG. 10-3 is a diagram illustrating that the ERAP1-peptide regulates E2-induced non-genomic activation route via IGF-1Rβ and Shc. […] BT-474 cells were treated with the ERAP1-peptide. Then, the phosphorylation levels of Akt and MAPK were evaluated by Western blotting. […] MCF-7 cells were treated with the ERAP1-peptide or the ERAP1-scramble peptide. The relative phosphorylation levels were quantified by densitometry analysis, and the ratio to the value at 0 hour in the untreated cells was calculated.
# [2] = system: tamoxifen-resistant MCF-7 cells; test: Proliferation of tamoxifen-resistant MCF-7 cells; conditions: 0, 5, 10 μM; in the presence of E2 and tamoxifen; 24 hours
# Protocol: FIG. 14 is a diagram illustrating the suppression effect of the ERAP1-peptide on tamoxifen-resistant MCF-7 cells. […] The tamoxifen-resistant MCF-7 cells were treated with the ERAP1-peptide in each concentration (0, 5 and 10 μM). Then, immediately, the cells were stimulated with 10 nM E2 for 24 hours.
# As the tamoxifen-resistant MCF-7 cell lines, those provided from Dr. Satoshi Inoue (Saitama Medical University Research Center for Genomic Medicine) under Material transfer agreement were offered for the experiment described below. The culture of tamoxifen-resistant MCF-7 cell was performed under the conditions recommended by the depositor. The tamoxifen-resistant MCF-7 cells were cultured in DMEM (Invitrogen, Carlsbad, Calif., USA) reinforced with 10% FBS (Nichirei Biosciences, Tokyo, Japan), 1% penicillin/streptomycin (Nacalai tesque, Kyoto, Japan), 1 μM tamoxifen (Sigma, St. Louis. Mo., USA).
# Cell proliferation assay was evaluated using Cell-Counting Kit-8 (CCK-8, manufactured by Dojindo Company). First, tamoxifen-resistant MCF-7 cells were seeded in 2×10^4/well on a 48-well plate in DMEM/F12 culture medium containing phenol red and stood in a CO2 incubator for 24 hours. […] Then, 100 μl was moved to a 96-well plate from each well, and the absorbance at 450 nm was measured with a microplate reader.
# HCC1395 cells = test: Proliferation of ERα-positive/ERAP1-negative HCC1395 cells; conditions: 10 nM E2 96 hours
# Protocol: FIG. 21 is a diagram illustrating that […] was translocated into the nucleus by E2 stimulation in ERAP1-negative breast cancer cell lines, HCC1395 cells. […] Then, immediately, the cells were stimulated with 1 μM E2 for 24 hours. The cells were fractionated into cytoplasm and nuclear fractions by specific gravity centrifugation. Then, each fraction was subjected to immunoblotting analysis using an anti-PHB2 antibody. Lamin and Tubulin are markers for […]. […] HCC1395 cells were treated with 5 μM ERAP1-peptide. Then, immediately, the cells were stimulated with 1 μM E2 for 24 hours. Then, the nuclear fraction was immunoprecipitated with anti-ERα antibody. Furthermore, with respect to the obtained sample, the immunoprecipitate was subjected to immunoblotting analysis with the antibodies shown in the figure. […] Then, immediately the cells were stimulated with 10 nM E2 for 96 hours.
# The proliferation assay of HCC1395 cells was evaluated using Cell-Counting Kit-8 (CCK-8, Dojindo, Kumamoto, Japan). First, HCC1395 cells were seeded in 2×10^4/well in RPMI culture medium containing 10% FBS and 1% antibiotic/antimycotic solution and not containing phenol red on a 48-well plate, and stood in a CO2 incubator. […] Then, 100 μl from each well was moved to a 96-well plate, and the absorbance at 450 nm was measured with a microplate reader.
smiles,measurement,setting,value
CSCC[C@H](NC(=O)[C@H](CCC(N)=O)NC(=O)[C@H](CCCNC(=N)N)NC(=O)[C@H](CCCNC(=N)N)NC(=O)[C@H](CCCNC(=N)N)NC(=O)[C@H](CCCNC(=N)N)NC(=O)[C@H](CCCNC(=N)N)NC(=O)[C@H](CCCNC(=N)N)NC(=O)[C@H](CCCNC(=N)N)NC(=O)[C@H](CCCNC(=N)N)NC(=O)[C@H](CCCNC(=N)N)NC(=O)[C@H](CCCNC(=N)N)NC(=O)[C@@H](N)CCCNC(=N)N)C(=O)N[C@@H](CC(C)C)C(=O)N[C@@H](CO)C(=O)N[C@@H](CC(=O)O)C(=O)N[C@@H](CC(C)C)C(=O)N[C@H](C(=O)N[C@@H](CC(C)C)C(=O)N[C@@H](CCC(N)=O)C(=O)N[C@@H](CC(C)C)C(=O)N[C@@H](CCCNC(=N)N)C(=O)N[C@@H](CCC(N)=O)C(=O)N[C@@H](CCCNC(=N)N)C(=O)O)[C@@H](C)O [ERAP1-peptide],cell proliferation in the absence of E2,KPL3 cells,significant cell proliferation suppression effect
same,cell proliferation in the absence of E2,ZR75-1 cells,significant cell proliferation suppression effect
same,"bindings of ERα to Her2, EGFR, IGF1-Rβ and PI3K",[1],"all of the bindings of ERα to Her2, EGFR, IGF1-Rβ and PI3K were inhibited"
same,cell proliferation of Tam-R MCF-7,[2],remarkably suppressed the cell proliferation in dose-dependent manner
same,cell proliferation,HCC1395 cells,not recognized
